The text below walks through data of ChEMBL document CHEMBL5518192, “Targeting aromatase to restrain oestrogen production and developing efficacious interventions against ER-positive cancer” (Eur J Med Chem, 2024).

As a reminder, the Ki is a measure of affinity in units of concentration, obtained from inhibition or displacement. Broadly, the IC50 is the concentration needed to halve the response being measured. High values mean a need for much substance, low ones inhibition by little substance. What is called logP is a log measure of how a compound divides between an organic and an aqueous phase. Low values mean a more hydrophilic compound, high ones a more lipophilic compound.

The structures appear in SMILES notation.

Series [1] has as its target T1, Aromatase (Homo sapiens, UniProt P11511).
T1 sequence (P11511 whole entry): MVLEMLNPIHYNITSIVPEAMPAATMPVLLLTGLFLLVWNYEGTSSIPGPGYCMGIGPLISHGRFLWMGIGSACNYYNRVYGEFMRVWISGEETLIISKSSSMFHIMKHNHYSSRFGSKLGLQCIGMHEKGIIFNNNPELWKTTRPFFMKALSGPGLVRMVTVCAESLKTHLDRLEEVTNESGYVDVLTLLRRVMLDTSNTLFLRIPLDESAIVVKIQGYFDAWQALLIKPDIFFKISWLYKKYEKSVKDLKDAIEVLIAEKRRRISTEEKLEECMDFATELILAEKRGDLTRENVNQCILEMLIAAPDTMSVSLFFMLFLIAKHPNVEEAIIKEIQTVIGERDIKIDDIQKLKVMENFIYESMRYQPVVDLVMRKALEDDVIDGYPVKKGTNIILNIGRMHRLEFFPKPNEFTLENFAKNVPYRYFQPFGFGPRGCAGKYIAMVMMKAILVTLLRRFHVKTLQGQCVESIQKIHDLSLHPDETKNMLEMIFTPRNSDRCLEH
Description: Competitive inhibition of human aromatase using varying concentrations of androstenedione as substrate assessed as […] in Km with constant Vmax at 10 uM by Lineweaver-Burk equation based analysis.

The subject of series [2] is MCF7. Description: cells. The settings on record: Homo sapiens, MCF7, 48 h, read-out: GI.
In series [3] the test system is MDA-MB-468. In words: Growth inhibition of estrogen receptor negative human MDA-MB-468 cells at 10 uM incubated for 48 hrs by SRB assay relative to control. It counts as functional. The following applies: read-out: GI. Background: The SRB assay estimates cell density from bound dye.
Series [4] concerns Hs-578T. Description: cells. The settings on record: Homo sapiens, 48 h, read-out: GI.
In series [5] the target is T1, Aromatase. Description: Binding affinity to human aromatase assessed as binding constant by Benesi-Hildebrand equation based analysis.
In series [6] the target is T1, Aromatase. Description: Binding affinity to human aromatase assessed as inhibition constant by Cheng-Prosuff equation based analysis.
For series [7], the target named is T2, Albumin (Homo sapiens, UniProt P02768). In words: Binding affinity to human serum albumin assessed as binding constant by spectrophotometer. The settings on record: isolated protein. Format: ADME.
T2 sequence (P02768 whole entry): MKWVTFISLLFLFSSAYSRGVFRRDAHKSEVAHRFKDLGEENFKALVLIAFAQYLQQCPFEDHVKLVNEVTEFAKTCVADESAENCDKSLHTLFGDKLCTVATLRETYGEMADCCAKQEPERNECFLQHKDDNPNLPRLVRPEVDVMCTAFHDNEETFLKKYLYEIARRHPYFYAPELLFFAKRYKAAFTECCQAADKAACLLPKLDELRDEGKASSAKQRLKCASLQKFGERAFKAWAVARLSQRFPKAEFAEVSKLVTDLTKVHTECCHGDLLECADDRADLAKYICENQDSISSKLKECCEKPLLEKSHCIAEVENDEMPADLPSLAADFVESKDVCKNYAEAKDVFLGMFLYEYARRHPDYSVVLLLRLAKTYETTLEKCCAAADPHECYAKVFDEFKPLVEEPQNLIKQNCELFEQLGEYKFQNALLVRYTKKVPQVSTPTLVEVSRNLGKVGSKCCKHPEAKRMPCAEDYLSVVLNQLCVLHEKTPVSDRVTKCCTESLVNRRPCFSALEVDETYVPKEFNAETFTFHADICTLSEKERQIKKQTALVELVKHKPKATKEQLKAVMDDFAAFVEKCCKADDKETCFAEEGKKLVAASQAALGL
Series [8] concerns the target T1, Aromatase.
Description: Inhibition of human aromatase preincubated for 10 mins followed by NADP+/fluorogenic substrate mixture addition and measured for 60 mins by fluorimetric assay
Series [9] relates to T47D. In words: cells. The settings on record: Homo sapiens, 48 h, read-out: GI.
Series [10] has as its target T2, Albumin. In words: Binding affinity to human serum albumin phosphate buffer at pH 7.4 assessed as conformational change in HSA by measuring increase in absorbance at 20 uM by UV-Vis absorption spectrum based analysis. It counts as ADME. The settings on record: isolated protein, pH 7.4, 20 µM.
For series [11], the target named is T1, Aromatase. Description: Binding affinity to human aromatase assessed as change in free energy.
A short description of series [12]: in vitro. The settings on record: human, plasma.
Description: Stability in human plasma assessed drug degradation at 50 uM measured after 120 mins by spectrometer
The nature of series [13]: physchem. The following applies: octanol/water.
Description: Octanol/water partition coefficient, log P of the compound
The target of series [14] is T1, Aromatase. In words: Binding affinity to human aromatase assessed as hyperchromic shift by measuring increase in absorbance intensity at 5 uM by UV-Vis spectral analysis.
Series [15] has as its system MDA-MB-231. Description: Growth inhibition of estrogen receptor negative human MDA-MB-231 cells at 10 uM incubated for 48 hrs by SRB assay relative to control. Format: functional. The following applies: read-out: GI.
Series [16] has as its system BT-549. In words: cells. The settings on record: Homo sapiens, BT-549, 48 h, read-out: GI.

Consider `CCOC(=O)C(=O)c1cn(CCCCCNc2ccc(C(=C(C)c3ccccc3)c3ccccc3)cc2)c2ccccc12`, for which the “inhibition (INH)” value in series [1] was “Active”. Also, the inhibition of growth at 10 µM in [2] was determined as 8.48%; in series [3], 24.3%; in [4] it was 6.04%; in [9], 30.1%; in series [15], 18.2%. Moreover, the figures for the Ka in series [5] and in series [7] were 5.5 10^4/M and 2.8 10^4/M, respectively. For the same compound, in series [6], the Ki came to 26 nM. In series [8], this compound yielded an IC50 of 54 nM. The result in series [10] and in [14] was Active. Further, in series [11], the deltaG was -6.72 kcal/mol. The compound further showed a metabolised at 2 h, 50 µM in series [12] of 15.5%. The compound further yielded a logP in series [13] of 4.81.
For the compound `C/C(=C(\c1ccccc1)c1ccc(NCCCCCn2cc(C(=O)C(=O)O)c3ccccc32)cc1)c1cccc(Br)c1`, the IC50 in series [8] came to 800 nM. The compound further displayed a logP in series [13] of 5.33.
Turning to `COc1ccccc1/C(C)=C(/c1ccccc1)c1ccc(NCCCCCn2cc(C(=O)C(=O)O)c3ccccc32)cc1`, in series [8], the IC50 came out at 12300 nM. Moreover, the logP in series [13] amounted to 4.46.
Consider `CCOC(=O)C(=O)c1cn(CCCNc2ccc(C(=C(C)c3ccccc3)c3ccccc3)cc2)c2ccccc12`, for which the inhibition of growth at 10 µM was determined as 10.9% in series [2], 41% in series [9] and 13.6% in [15]. Besides, in series [8], the IC50 came to 650 nM. In series [13], this compound yielded a logP of 4.46.
Regarding `CC(=C(c1ccccc1)c1ccc(NCCCCCn2cc(C(=O)C(=O)O)c3ccccc32)cc1)c1ccccc1`, the inhibition of growth at 10 µM in series [3] amounted to 7.71%; in [4] it was 12.4%; in series [9], 13%. Besides, the IC50 in series [8] amounted to 3170 nM. Further, in [13], the logP is 4.97.
`CCOC(=O)C(=O)c1cn(CCCCCNc2ccc(/C(=C(/C)c3ccccc3OC)c3ccccc3)cc2)c2ccccc12` showed an IC50 in series [8] of 133 nM. This compound showed a logP in series [13] of 4.31.
`COc1ccccc1/C(C)=C(/c1ccccc1)c1ccc(NCCCCn2cc(C(=O)C(=O)O)c3ccccc32)cc1`: it took 550 nM to reach half-maximal inhibition in series [8] (IC50). The same compound showed a logP in series [13] of 4.29.
`CC(=C(c1ccccc1)c1ccc(NCCCn2cc(C(=O)C(=O)O)c3ccccc32)cc1)c1ccccc1`: the inhibition of growth at 10 µM in series [4] stood at 14.1%; in [16], 14.8%. For the same compound, in series [8], half-maximal inhibition (IC50) required 178 nM. Moreover, the logP in [13] was 4.61.
In turn, `CCOC(=O)C(=O)c1cn(CCCCNc2ccc(/C(=C(/C)c3ccccc3OC)c3ccccc3)cc2)c2ccccc12` displayed an IC50 in [8] of 3200 nM. In addition, the lipophilicity (logP) in [13] was determined as 4.13.
In the case of `CCOC(=O)C(=O)Nc1ccc(/C(=C(/C)c2ccc(Cl)cc2)c2ccccc2)cc1`, the result in series [10] was Active.
Compound `C/C(=C(\c1ccccc1)c1ccc(NCCCCn2cc(C(=O)C(=O)O)c3ccccc32)cc1)c1cccc(Br)c1` had an IC50 in series [8] of 6800 nM. Moreover, the logP in series [13] is 5.15.
In the same order, the values of `CCOC(=O)C(=O)c1cn(CCCCCCNc2ccc(C(=C(C)c3ccccc3)c3ccccc3)cc2)c2ccccc12` are 1940 nM and 4.98.
In series [8], `CCOC(=O)C(=O)c1cn(CCCCNc2ccc(/C(=C(/C)c3cccc(Br)c3)c3ccccc3)cc2)c2ccccc12` registered an IC50 of 3860 nM. In [13], the lipophilicity (logP) came out at 4.99.
As for `CCOC(=O)C(=O)c1cn(CCNc2ccc(C(=C(C)c3ccccc3)c3ccccc3)cc2)c2ccccc12`, the half-maximal inhibitory concentration (IC50) in series [8] was 1390 nM. In series [13], this compound showed a lipophilicity (logP) of 4.28.
As to `CC(=C(c1ccccc1)c1ccc(NCCn2cc(C(=O)C(=O)O)c3ccccc32)cc1)c1ccccc1`, the inhibition of growth at 10 µM in [2] is 47.3%; in [3], 55.1%; in series [4], 46.4%; in series [9], 38.9%; in [16], 32.5%; in [15] it was 13.3%. In addition, half-maximal inhibition in series [8] (IC50) required 9730 nM. Further, the logP in series [13] was 4.43.
`CC(=C(c1ccccc1)c1ccc(NCCCCCCn2cc(C(=O)C(=O)O)c3ccccc32)cc1)c1ccccc1` registered a logP in series [13] of 5.15.
Consider `CCOC(=O)C(=O)c1cn(CCCCCNc2ccc(/C(=C(/C)c3cccc(Br)c3)c3ccccc3)cc2)c2ccccc12`, for which 790 nM corresponded to half-maximal inhibition in series [8] (IC50). In series [13], this compound gave a logP of 5.16.
For the compound `CC(=C(c1ccccc1)c1ccc(NCCCCn2cc(C(=O)C(=O)O)c3ccccc32)cc1)c1ccccc1`, the inhibition of growth at 10 µM in [2] was found to be 14.3%; in [3] it was 12.9%; in series [4] it was 60.2%; in series [9] it was 13.7%; in series [16], 40.2%. The IC50 in series [8] was 1370 nM. Moreover, in series [13], the logP amounted to 4.79.
On to `CCOC(=O)C(=O)c1cn(CCCCNc2ccc(C(=C(C)c3ccccc3)c3ccccc3)cc2)c2ccccc12`, for which the IC50 in series [8] was 500 nM. Also, the inhibition of growth at 10 µM in [9] was 5.76%. Besides, the logP in series [13] is 4.63.
Regarding `CCOC(=O)C(=O)Nc1ccc(/C(=C(/C)c2ccc(OC)cc2)c2ccccc2)cc1`, the outcome in [10] was Active.
`N#Cc1ccc(C(c2ccc(C#N)cc2)n2cncn2)cc1` [LETROZOLE] returned a logP in [13] of 2.29.
Turning to `CC/C(=C(\c1ccccc1)c1ccc(OCCN(C)C)cc1)c1ccccc1` [TAMOXIFEN], the inhibition of growth at 10 µM in [2] was -10.3%; in [3] it was -13.3%; in series [4], 39.5%; in series [16], 30.2%; in series [15], 54.8%.
